The results in this text go back to patent US10538561B2, “Peptide for treating inflammatory diseases” (priority 2015, dated 2020).

The subject of data set [1] is VEGF. Kind of data set: VEGF inhibition in keratinocytes (ELISA). The format is cell-based, Human. The settings on record: HaCaT. How it is done: Cell lines: Human Keratinocytes (HaCaT); test item: IS181; treatment regimen: single addition—24 hours; concentration range: 0.1 μg/ml-100 μg/ml. […] Cells were serum-starved for another 24 hours (0% FBS). Cells were treated with IS181 for 24 hours. Supernatants were collected and stored at −20° C. till analysed. Levels of VEGF were analysed in supernatants by ELISA. Percent inhibition of VEGF secretion was calculated with reference to untreated levels. Positive control: curcumin; retinoic acid (at non-cytotoxic concentrations).
In general terms: ELISA stands for enzyme-linked immunosorbent assay.

Data set [2] concerns Human Keratinocytes (HaCaT). Kind of data set: Annexin-V assay. The settings on record: 10 μM-50 μM. Type of data set: cell-based. How it is done:
Cell lines: Human Keratinocytes (HaCaT); test Item (TI): IS181; Treatment regimen: treated twice (once after 24 hours)-48 hours; concentration range: 100 6 g/ml-5000 6 g/ml. […] (c) cells were treated with IS181 for 24 hours; (d) after 24 hours, cells were again treated with IS181 for 24 hours; (e) after 48 hours of first treatment, cells were stained with Annexin-V reagent and acquired on flow cytometer; (f) fold increase in apoptotic cells (early and late apoptotic) and necrotic cells was calculated with respect to untreated control cells. Positive control: Curcumin. […] (FIG. 4)

Data set [3] deals with IL-23. Kind of data set: IL-23 secretion in LPS+IFN-γ stimulated THP-1. The format is cell-based, Human. The settings on record: THP-1 + LPS + IFN-γ, 24 h. How it is done: (§1) Cell lines: Human monocytic cell line (THP-1); test item: IS181: treatment regimen; single addition—24 hours; concentration range: 10 μg/ml-5000 μg/ml. A) Identification of non-cytotoxic concentrations: THP-1 cells were treated with IS181 for 24 hours; effect on cell viability was assessed by MTT assay; concentrations leading to >75% cell viability were selected for IL-23 assay. […] Positive control: curcumin. […] Since supernatants corresponding to 5 concentrations were to be tested for […], we also tested 1 mg/ml.

Data set [4] in a line: Cell viability of splenocytes (MTT). Type of data set: cell-based, mouse. Particulars: mouse. As for the experimental part:
(§2) Cell lines: mouse splenocytes; test item: IS181; treatment regimen: single addition—24 hours; concentration range: 10 μg/ml-5000 μg/ml.A) Identification of non-cytotoxic concentrations: splenocytes were treated with IS181 for 24 hours. Effect on cell viability was assessed by MTT assay. Concentrations leading to >75% cell viability were selected for IL-17 assay. B) IL-17 assay: splenocytes were treated with IS181 in presence of ConA stimulation for 24 hours. Supernatants were collected and stored at −20° C. till analysed. Levels of IL-17 were analysed in supernatants by ELISA. Percent inhibition of IL-17 secretion was calculated with reference to ConA treated levels. Positive control: curcumin.

The nature of data set [5]: Cell viability of THP-1 (MTT). Particulars: human. Type of data set: cell-based, Human. How it is done: as §1
Data set [6] has as its system IL-17. Nature of the data set: IL-17 secretion in ConA stimulated splenocytes. The format is cell-based, mouse. Particulars: splenocytes + ConA, 24 h. How it is done: as §2
Data set [7] is described as follows: in vitro. The settings on record: human, HaCaT keratinocytes.
Experimental: (§5) The cells were then incubated for 72 hours. Percentage cytotoxicity was determined using MTT assay.
For data set [8], the system named is Human Keratinocytes (HaCaT). Nature of the data set: In vitro combination methotrexate and IS181 (MTT). Particulars: for 50% Inhibition (concentration of MTX): 72 h.
Experimental: as §5
For data set [9], the system named is Human endothelial cells (EA.hy 926). Kind of data set: Inhibition of FBS stimulated endothelial cell proliferation (MTT). The format is cell-based. As for the experimental part:
Cell line: Human endothelial cells (EA.hy 926); test item: IS 181: treatment regimen: multiple additions (3)-72 hours; concentration range: 1 6 g/ml to 5000 6 g/ml (triplicate wells); sera condition: medium containing 10% FBS. […] The cells were then subjected to complete serum starvation. The cells were retreated with 10% FBS to stimulate cellular proliferation. […] Inhibition of FBS stimulated cell proliferation was measured using MTT assay. End point: percentage inhibition of FBS stimulated cell proliferation. Positive controls: anthralin; paclitaxel.

Data set [10] shares this test system. Nature of the data set: Inhibition of endothelial cell migration (wound). Type of data set: cell-based. The settings on record: Homo sapiens, EA.hy 926; EA.hy926, 14 h, 10 nM; read-out: % Inhibition of migration with respect to respective 0 h control. As for the experimental part: Cell line: Human endothelial cells (EA.hy 926); test item: IS 181; treatment regimen: single addition; concentration range: 0.1 μg/ml-1 mg/ml; sera condition: medium containing 10% FBS. […] The cells were then subjected to serum starved with medium containing 1% FBS for 24 hours. 24 hours post serum starvation, the wounds (straight line) were created in the middle of the well using a sterile 200 μl pipette tip. Cells were washed twice using DMEM followed by treatment with different concentrations of IS 181 in DMEM containing 10% FBS. Images of wound were taken at 0 h and 14 h at three points in single well and distance of wound closure was measured using Image J software. End point: image analysis of cell migration of different concentrations of IS 181 treated cells at 0 hour and after 14 hours of treatment. Percentage inhibition in cell migration of different concentrations of IS 181 treated cells were calculated after 14 h of treatment with respect to respective 0 hours (FIG. 13). […] (FIGS. 14A-14B).

For data set [11], the system named is HaCaT (Human keratinocyte) cell line. Kind of data set: Mitochondrial membrane potential by JC-1 assay. Type of data set: cell-based. How it is done: (§3) For testing Apoptosis the Human Keratinocytes (HaCaT) cell line has been employed. The growth conditions are DMEM containing 1% FBS. […] Test concentration range is IS181 is tested at the highest (Qualitative analysis) effective concentrations selected on the basis of Quantitative JC-1 assay. The method of estimation is Mitochondrial membrane depolarization by JC-1 assay (Early apoptosis), LDH enzyme release (Necrosis). Treatment regimen & time points are JC-1 assay—Single addition, 20 h; LDH assay—Single addition, 24 h; Positive control: Triton-X-100, Doxorubicin-hydrochloride
Quantitative effect on Δψm (Red fluorescence/Green fluorescence) in HaCaT cells post 20 hours of treatment. […] Evaluation (Qualitative and quantitative) of differential JC-1 staining in treated cells after 20 h on incubation with the test peptides.

The subject of data set [12] is Human PBMCs. Kind of data set: Cell viability (MTT assay) in PBMCs. The format is cell-based. How it is done: (§4) Cell Lines/Cells: Human Keratinocytes (HaCaT); Human melanoma (SK-MEL-28); Human PBMCs. Test Item: IS181 Treatment regimen: Single addition—24 h, ^#Multiple additions (3)−72 h; Concentration range: 1 ng/ml-2 mg/ml (triplicate wells); Sera Condition: […] Method of estimation: MTT assay. […] Positive control: Triton-X-100, Doxorubicin Hydrochloride.
(In general: Tetrazolium assays rely on reduction of a dye to a coloured formazan, in cell work by metabolically active cells.)

Data set [13] concerns HaCaT (Human keratinocyte). Kind of data set: LDH enzyme release assay. The format is cell-based. How it is done: as §3
End-point: Percentage increase in LDH activity in treated cells with respect to untreated.

Data set [14] concerns Human melanoma (SK-MEL-28). Nature of the data set: Cell viability (MTT assay) in SK-MEL-28. The format is cell-based. How it is done: as §4

Like-named read-outs stand apart in the source and are kept apart here.

For the molecule `COc1cc(/C=C/C(=O)CC(=O)/C=C/c2ccc(O)c(OC)c2)ccc1O` [Curcumin, reference compound], the VEGF inhibition entry in [1] (20 uM) is “did not result in any VEGF inhibition”. Besides, the “Conc. of VEGF” value in [1] (24 h, 1 μM) is 3059.1 pg/mL. Also, the inhibition at 1 µM worked out at 14.9% in [1] (Homo sapiens, 24 h, 1 μM, read-out: % Inhibition of VEGF wrt untreated (basal) levels); 91.6% in data set [3] (Homo sapiens, 1 μM, read-out: % Inhibition of IL-23 wrt Control (LPS + IFN-γ)); 40.5% in data set [6] (Mus musculus, Splenocyte, 1 μM, read-out: % Inhibition of IL-17 wrt Control (ConA)). Besides, in data set [2], the “increase in early apoptotic cells” value is given as 12.8-152.5 fold. Moreover, in data set [2], the “increase in late apoptotic cells” value was 2.4-138.4 fold. Besides, the inhibition at 10 µM amounted to 90.6% in data set [3] (Homo sapiens, 10 μM, read-out: % Inhibition of IL-23 wrt Control (LPS + IFN-γ)) and 42.5% in data set [6] (Mus musculus, Splenocyte, 10 μM, read-out: % Inhibition of IL-17 wrt Control (ConA)). For the same molecule, the “Conc. of IL-23” value in [3] (1 μM) turned out to be 7.1 pg/mL; in [3] (10 μM), 7.9 pg/mL. For the same molecule, in data set [4], the viability (usually a read-out of living cells in per cent, often relative to untreated cells) at 24 h was more than 75%. Moreover, the figures for the viability at 24 h, 1 µM in data set [4] and in data set [5] were 97.5% and 94.7%, respectively. Further, the viability at 24 h, 10 µM in data set [4] turned out to be 82%; in data set [5], 103%. In addition, the viability at 24 h, 20 µM came to 40.4% in [4] and 107% in data set [5]. Also, the “Conc. of IL-17” value was found to be 27.7 pg/mL in data set [6] (1 μM) and 26.7 pg/mL in data set [6] (10 μM).

`CN(Cc1cnc2nc(N)nc(N)c2n1)c1ccc(C(=O)N[C@@H](CCC(=O)O)C(=O)O)cc1` [MTX, methotrexate] came in with a cytotoxicity at 72 h, 0.01 µM in [7] of 12.3%. In [7], this molecule showed a cytotoxicity at 72 h, 0.1 µM of 1.9%. For the same molecule, the cytotoxicity at 72 h, 0.25 µM in data set [7] stood at 21.3%. Also, the cytotoxicity at 72 h, 0.5 µM in data set [7] turned out to be 23.9%. Also, the cytotoxicity at 72 h, 1 µM in data set [7] came out at 27.7%. The cytotoxicity at 72 h, 5 µM in [7] was 22%. In addition, the “50% Inhibition (concentration of MTX)” value in data set [8] (with IS181 10 μg/ml) and in data set [8] (with IS181 50 μg/ml) was 50% inhibition was still not achieved throughout. In addition, the IC50 was more than 5 µM in data set [8] (read-out: 50% Inhibition (concentration of MTX), 72 h, MTX Alone); more than 5 µM in data set [8] (read-out: 50% Inhibition (concentration of MTX), 72 h, with IS181 10 μg/ml); more than 5 µM in [8] (read-out: 50% Inhibition (concentration of MTX), 72 h, with IS181 50 μg/ml); 1 to 5 µM in data set [8] (read-out: 50% Inhibition (concentration of MTX), 72 h, with IS181 500 μg/ml); 0.01 µM in [8] (read-out: 50% Inhibition (concentration of MTX), 72 h, with IS181 1000 μg/ml); less than 0.01 µM in data set [8] (read-out: 50% Inhibition (concentration of MTX), 72 h, with IS181 2000 μg/ml). In addition, the IC50 in data set [8] (read-out: 50% Inhibition (concentration of MTX), 72 h, with IS181 5000 μg/ml) is less than 0.01 µM.

Consider `CC(=O)O[C@H]1C(=O)[C@@]2(C)[C@H]([C@H](OC(=O)c3ccccc3)[C@]3(O)C[C@H](OC(=O)[C@H](O)[C@@H](NC(=O)c4ccccc4)c4ccccc4)C(C)=C1C3(C)C)[C@]1(OC(C)=O)CO[C@@H]1C[C@@H]2O` [Paclitaxel], for which the “Absorbance (Mean ± SD) at 540 nm” value in data set [9] (EA.hy926, 10 nM) turned out to be 0.36 ± 0.012; in [9] (EA.hy926, 50 nM) it was 0.23 ± 0.008; in data set [9] (EA.hy926, 100 nM) it was 0.19 ± 0.006; in data set [9] (EA.hy926, 500 nM), 0.16 ± 0.003; in [9] (EA.hy926, 1000 nM), 0.06 ± 0.001. For the same molecule, the inhibition at 0.01 µM was found to be 27.6% in [9] (Homo sapiens, EA.hy 926, EA.hy926, 10 nM, read-out: ¾ Inhibition of FBS stimulated cell growth) and 71% in [10]. For the same molecule, in [9] (Homo sapiens, EA.hy 926, EA.hy926, 50 nM, read-out: ¾ Inhibition of FBS stimulated cell growth), the inhibition at 0.05 µM was 58.9%. Moreover, in data set [9] (Homo sapiens, EA.hy 926, EA.hy926, 100 nM, read-out: ¾ Inhibition of FBS stimulated cell growth), the inhibition at 0.1 µM stood at 62.7%. Moreover, the inhibition at 0.5 µM in data set [9] (Homo sapiens, EA.hy 926, EA.hy926, 500 nM, read-out: ¾ Inhibition of FBS stimulated cell growth) came out at 70.1%. Moreover, the inhibition at 1 µM in data set [9] (Homo sapiens, EA.hy 926, EA.hy926, 1000 nM, read-out: ¾ Inhibition of FBS stimulated cell growth) was determined as 89.4%.

For Triton X-100 [reference compound], in [11] (0.01%), the “Green fluorescence intensity (RFU)” value is on record as 20.5 ± 17.68 RFU, the “Red fluorescence intensity (RFU)” value came to 33.25 ± 32.17 RFU and the “Red fluorescence intensity/Green fluorescence intensity” value is on record as “*1.62”. Besides, in data set [11] (0.1%), the “Green fluorescence intensity (RFU)” value came to 22.33 RFU, the “Red fluorescence intensity (RFU)” value amounted to 16.33 RFU and the “Red fluorescence intensity/Green fluorescence intensity” value is “*0.73”. For the same molecule, in [12], the cytotoxicity was 70% to 77%. In data set [13] (0.01%), the “% Increase with respect to untreated (LDH)” value is −30.27% and the “LDH Activity (mU/ml)” value is 44.11 mU/ml. Also, in data set [13] (0.1%), the “% Increase with respect to untreated (LDH)” value is reported as “***95.84%” and the “LDH Activity (mU/ml)” value came out at 123.88 mU/ml. In data set [14], the cytotoxicity is on record as more than 90%.
